Measurements reported in ChEMBL document CHEMBL1150673, “Briarellins J-P and polyanthellin A: new eunicellin-based diterpenes from the gorgonian coral Briareum polyanthes and their antimalarial activity” (J Nat Prod, 2003).
In brackets after ≈: the same amount, converted by molar mass. Activity calls are given as the source filed them. The rule behind the calls is not given here.

Assays:
Plasmodium falciparum = experiment: Antimalarial activity as Plasmodium falciparum DNA by PicoGreen microfluorimetry; type: functional, organism-based
MCF = experiment: Cytotoxicity against human MCF cells at 100 uM; type: functional, cell-based
NCI-H460 = experiment: Cytotoxicity against human NCI-H460 cells at 100 uM; type: functional, cell-based
SF-268 = experiment: Cytotoxicity against human SF268 cells at 100 uM; type: functional, cell-based
[1] = system: Mycobacterium tuberculosis; experiment: Antitubercular activity against Mycobacterium tuberculosis H37Rv at 6.25 ug/ml; type: functional, organism-based
[2] = target: Cyclin-dependent kinase 1/cyclin B1 (Homo sapiens) (UniProt P06493+P14635); experiment: Inhibition of Cdc2/cyclin B; type: protein-complex assay
[3] = system: M-phase inducer phosphatase (Cdc25); experiment: Inhibition of Cdc25

Cyclin-dependent kinase 1/cyclin B1 (Homo sapiens), sequence (P06493 whole entry, looked up): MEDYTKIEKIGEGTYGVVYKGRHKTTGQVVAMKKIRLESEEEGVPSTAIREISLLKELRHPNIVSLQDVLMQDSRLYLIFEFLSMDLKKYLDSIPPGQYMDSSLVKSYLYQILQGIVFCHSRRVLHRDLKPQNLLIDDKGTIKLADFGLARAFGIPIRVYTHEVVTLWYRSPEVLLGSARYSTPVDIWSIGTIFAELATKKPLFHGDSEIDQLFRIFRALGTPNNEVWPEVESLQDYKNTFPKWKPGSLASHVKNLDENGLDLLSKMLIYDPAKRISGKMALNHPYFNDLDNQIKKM
Cyclin-dependent kinase 1/cyclin B1 (Homo sapiens), sequence (P14635 whole entry, looked up): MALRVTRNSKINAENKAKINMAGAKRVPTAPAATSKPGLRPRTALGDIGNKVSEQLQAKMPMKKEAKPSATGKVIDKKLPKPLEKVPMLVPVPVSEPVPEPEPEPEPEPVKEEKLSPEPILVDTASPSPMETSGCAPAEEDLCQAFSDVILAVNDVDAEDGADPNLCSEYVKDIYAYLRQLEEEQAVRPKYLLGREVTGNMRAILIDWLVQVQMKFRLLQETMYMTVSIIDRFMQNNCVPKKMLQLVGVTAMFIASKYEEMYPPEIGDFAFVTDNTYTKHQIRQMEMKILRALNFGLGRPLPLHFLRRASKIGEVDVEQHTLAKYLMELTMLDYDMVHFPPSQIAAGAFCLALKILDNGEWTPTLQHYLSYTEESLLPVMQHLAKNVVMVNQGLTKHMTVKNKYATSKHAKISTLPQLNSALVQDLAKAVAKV

Structure (SMILES)	IC50 (Plasmodium falciparum) [µg/mL]	Activity [1]	other results
CC(=O)O[C@]1(C)CCC2[C@@H]3C4OC(C/C(C)=C\CC[C@]4(C)OC(=O)[C@@H]2C)[C@@H]31 (some centres not stated) [BRIARELLIN J]	> 50		
C=C1CC2OC3[C@H]4C(CC[C@@](C)(OC(C)=O)[C@@H]24)[C@@H](C)C(=O)O[C@@]3(C)CC[C@H]1O (some centres not stated) [BRIARELLIN K]	15 (≈ 38.2 µM)	inactive	Activity (MCF): inactive; Activity (NCI-H460): inactive; Activity (SF-268): inactive; Activity [2]: inactive; Activity [3]: inactive
CC(=O)O[C@@]1(C)CC[C@@H](C(C)C)[C@@H]2C3OC(C[C@@]4(C)CCC[C@]3(C)O4)[C@@H]21 [POLYANTHELLIN A]	16 (≈ 43.9 µM)	inactive	
C=C1CC2OC3[C@H]4C(CC[C@@](C)(OC(=O)CCC)[C@@H]24)[C@@H](C)C(=O)O[C@@]3(C)CC[C@H]1OO (some centres not stated) [BRIARELLIN D HYDROPEROXIDE]	9 (≈ 20.6 µM)		
CC(C)[C@@H]1CC[C@](C)(O)[C@H]2C3C[C@@]4(C)CCC[C@](C)(O4)C(O3)[C@@H]12	16 (≈ 49.6 µM)		
C=C1CC2OC3[C@H]4C(CC[C@@](C)(OC(=O)CCC)[C@@H]24)[C@@H](C)C(=O)O[C@@]3(C)CC[C@H]1O (some centres not stated) [BRIARELLIN D]	13 (≈ 30.9 µM)	inactive	Activity (MCF): inactive; Activity (NCI-H460): inactive; Activity (SF-268): inactive; Activity [2]: inactive; Activity [3]: inactive
C=C1CC2OC3[C@H]4C(CC[C@@](C)(OC(C)=O)[C@@H]24)[C@@H](C)C(=O)O[C@@]3(C)CC[C@H]1OO (some centres not stated) [BRIARELLIN K HYDROPEROXIDE]	9 (≈ 22 µM)		
CO[C@@H]1CC[C@]2(C)OC(=O)[C@H](C)C3CC[C@@](C)(OC(C)=O)[C@H]4C(C[C@@]1(C)O)OC2[C@@H]34 (some centres not stated)		inactive	Activity [2]: inactive; Activity [3]: inactive
CCCC(=O)O[C@]1(C)CCC2[C@@H]3C4OC(C[C@@](C)(O)[C@H](O)CC[C@]4(C)OC(=O)[C@@H]2C)[C@@H]31 (some centres not stated) [BRIARELLIN O]	24 (≈ 54.7 µM)		
CCCC(=O)O[C@]1(C)CCC2[C@@H]3C4OC(C[C@@](C)(O)[C@H](OC)CC[C@]4(C)OC(=O)[C@@H]2C)[C@@H]31 (some centres not stated) [BRIARELLIN P]	14 (≈ 30.9 µM)		
C=C1CC2OC3[C@H]4C(CC[C@@](C)(OC(=O)CCC)[C@@H]24)[C@@H](C)C(=O)O[C@@]3(C)CC[C@H]1OC(C)=O (some centres not stated) [BRIARELLIN L]	8 (≈ 17.3 µM)		
CC(=O)O[C@]1(C)CCC2[C@@H]3C4OC(C[C@@](C)(O)[C@H](O)CC[C@]4(C)OC(=O)[C@@H]2C)[C@@H]31 (some centres not stated) [BRIARELLIN M]	22 (≈ 53.6 µM)		
